One data set deals with T1, human GLP-1 receptor (Homo sapiens, UniProt P43220).
T1 construct: expressed in transfected cells; host or cells: HEK-293 Aurora CRE-BLAM cells
The data set is described as follows: In vitro potency assay (CRE-BLAM fluorescence assay). The class given is cell-based. Particulars: for In vitro activity relative to Val^8-GLP-1(7-37)OH: from EC50, HEK-293 Aurora CRE-BLAM cells, Val^8-GLP-1(7-37)OH control = 1; for potency higher than Val^8-GLP-1(7-37)OH: in vitro potency, approximate. From the text:
The assay is discussed in more detail on page 17 and in example 3.
These HEK-293 cells have stably integrated a DNA vector having a cAMP response element (CRE) driving expression of the β-lactamase (BLAM) gene. […] The assay is further described in Zlokarnik, et al. (1998) Science 279:84-88 (See also Example 3).
The day after seeding, the medium is replaced with plasma free medium.

For data set [1] the following is noted: cited from earlier work.

No end group written: not given here.

T1 sequence (P43220 24-463): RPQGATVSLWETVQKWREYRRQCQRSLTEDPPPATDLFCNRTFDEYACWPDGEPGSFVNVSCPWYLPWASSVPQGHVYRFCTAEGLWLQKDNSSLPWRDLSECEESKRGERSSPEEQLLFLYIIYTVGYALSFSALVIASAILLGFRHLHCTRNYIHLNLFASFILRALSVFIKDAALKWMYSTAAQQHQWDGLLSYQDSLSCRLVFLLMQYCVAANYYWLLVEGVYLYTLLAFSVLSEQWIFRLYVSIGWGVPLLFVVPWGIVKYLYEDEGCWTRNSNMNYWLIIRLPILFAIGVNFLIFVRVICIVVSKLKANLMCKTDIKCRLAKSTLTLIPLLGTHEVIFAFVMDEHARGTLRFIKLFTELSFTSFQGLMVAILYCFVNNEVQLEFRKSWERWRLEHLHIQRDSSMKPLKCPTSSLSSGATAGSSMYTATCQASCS

“Arg^34Lys^26-(N-ε-(γ-Glu(N-α-hexadecanoyl)))-GLP-1(7-37) [reference compound]”: on human GLP-1 receptor, the “In vitro activity relative to Val^8-GLP-1(7-37)OH” value was found to be 1.92. In the case of Val^8-Tyr^12-GLP-1(7-37)OH, the “In vitro activity relative to Val^8-GLP-1(7-37)OH” value at human GLP-1 receptor came to 1.73. On to Val^8-Trp^12-GLP-1(7-37)OH, for which, at human GLP-1 receptor, the “In vitro activity relative to Val^8-GLP-1(7-37)OH” value came out at 1.07. On to GLP-1(7-37)OH, for which the “intact GLP-1 levels” value in data set [1] (2.4 pmol/kg/min (Toft-Nielsen et al.)) is on record as approximately 22.5 picomolar. In data set [1] (continuous administration 0.75 pmol/kg/min for 180 min, last 120 min of treatment (Naslund et al.)), the “plasma levels of intact GLP-1” value is reported as “approximately 20 picomolar”.

As for “Gly^8-GLP-1(7-37)OH (HGEGTFTSDVSSYLEGQAAKEFIAWLVKGRG-OH; UniProt P01275 98-128, looked up, variant A8G) [GLP-1 analog]”, the “In vitro activity relative to Val^8-GLP-1(7-37)OH” value with human GLP-1 receptor is 1.67. Take Val^8-Glu^22-GLP-1(7-37)OH: at human GLP-1 receptor, the “In vitro activity relative to Val^8-GLP-1(7-37)OH” value amounted to 3.33 and the “potency higher than Val^8-GLP-1(7-37)OH” value is given as “approximately 3 fold”.

With Val^8-Leu^16-GLP-1(7-37)OH, on human GLP-1 receptor, the “In vitro activity relative to Val^8-GLP-1(7-37)OH” value is 1.13. Consider Val^8-GLP-1(7-36)NH2, for which the “In vitro activity relative to Val^8-GLP-1(7-37)OH” value with human GLP-1 receptor was determined as 1.06. As for Exendin-4 [reference compound], in the data set with human GLP-1 receptor, the “In vitro activity relative to Val^8-GLP-1(7-37)OH” value was found to be 4.5 and the “potency higher than Val^8-GLP-1(7-37)OH” value is “approximately 5 fold”. On to Val^8-Arg^26-GLP-1(7-37)OH, for which the “In vitro activity relative to Val^8-GLP-1(7-37)OH” value on human GLP-1 receptor is listed as 1.47. Turning to Val^8-Lys^22-GLP-1(7-37)OH, the “In vitro activity relative to Val^8-GLP-1(7-37)OH” value at human GLP-1 receptor is 1.22.

The record behind these values is patent US7989585B2, “Chronic treatment regimen using glucagon-like insulinotropic peptides” (Eli Lilly and Company, priority 2000, dated 2011).
